Results published in ChEMBL document CHEMBL5154789 (J Med Chem, 2022).
Active and inactive are the calls of the source. No cut-off for these calls is given here.

Tests used:
[1] = target: Fibroblast growth factor receptor 2 (Homo sapiens, UniProt P21802)
Description: Inhibition of FGFR2 (unknown orgin) using Tyr 04 peptide as substrate incubated for 1 hr in presence of 5 uM ATP by FRET based Z'-LYTE assay

Hep 3B2 = test: cells; conditions: Homo sapiens, Hep3B, 120 h
Description: Antiproliferative activity against human Hep3B cells assessed as inhibition of cell growth incubated for 5 days by SRB assay

BaF3 [2] = test: Inhibition of FGFR4 V550L mutant signalling in mouse BAF3 cells at 3 to 90 nM incubated for 6 hrs by Western blot analysis; format: cell-based; conditions: dose 3-90 nM
BaF3 [3] = test: Antiproliferative activity against mouse BAF3 cells assessed as inhibition of cell growth incubated for 72 hrs by CCK8 assay; format: functional, cell-based; conditions: BaF3, 72 h
[4] = Antiproliferative activity against human JHH7 cells assessed as inhibition of cell growth incubated for 5 days by SRB assay; format: functional, cell-based; conditions: JHH7, 120 h
[5] = Toxicity in BALB/c nude mouse xenografted with human Huh-7 cells assessed as loss of body weight at 20 to 40 mg/kg, […] administered twice daily for 17 days and measured every 2 days; format: organism-based; conditions: in vivo, 408 h, dose 20-40 mg/kg, time 17 day
Huh-7 [6] = test: Antitumor activity against human Huh-7 cells xenografted in BALB/c nude mouse assessed as tumor growth inhibition at 20 mg/kg, ip administered twice daily for 17 continuous days and measured every 2 days; format: functional; conditions: Huh-7, 408 h, time 17 day, read-out: TGI
MDA-MB-453 = test: cells; conditions: Homo sapiens, MDA-MB-453, 120 h
Description: Antiproliferative activity against human MDA-MB-453 cells assessed as inhibition of cell growth incubated for 5 days by SRB assay

[7] = target: Fibroblast growth factor receptor 1 (Homo sapiens, UniProt P11362)
Description: Inhibition of FGFR1 (unknown orgin) using Tyr 04 peptide as substrate incubated for 1 hr in presence of 25 uM ATP by FRET based Z'-LYTE assay

[8] = target: Fibroblast growth factor receptor 4 (Mus musculus) (UniProt Q03142); test: Inhibition of wild type FGFR4 phosphorylation in mouse BAF3 cells at 30 nM incubated for 6 hrs by Western blot analysis; format: cell-based
[9] = target: Fibroblast growth factor receptor 4 (Mus musculus) (UniProt Q03142); test: Inhibition of wild type FGFR4 phosphorylation in mouse BAF3 cells assessed as reduction in FRS2 level at 3 to 90 nM incubated for 6 hrs by Western blot analysis; format: cell-based; conditions: dose 3-90 nM
BaF3 [10] = test: cells; conditions: Mus musculus, BaF3, 72 h
Huh-7 [11] = test: Antitumor activity against human Huh-7 cells xenografted in ip dosed BALB/c nude mouse assessed as tumor growth inhibition administered twice daily for 17 continuous days and measured every 2 days; format: functional, organism-based; conditions: time 17.0 day, DDE = dose-dependent effect
BaF3 [12] = test: cells; conditions: Mus musculus, BaF3, 72 h; remark: listed apart in the source
Huh-7 [13] = test: Antitumor activity against human Huh-7 cells xenografted in BALB/c nude mouse assessed as tumor growth inhibition at 40 mg/kg, ip administered twice daily for 17 continuous days and measured every 2 days; format: functional; conditions: Huh-7, 408 h, time 17 day, read-out: TGI
[14] = target: Fibroblast growth factor receptor 4 (Mus musculus) (UniProt Q03142); test: Inhibition of wild type FGFR4 phosphorylation in mouse BAF3 cells assessed as reduction in MAPK level at 3 to 90 nM incubated for 6 hrs by Western blot analysis; format: cell-based; conditions: dose 3-90 nM
Huh-7 [15] = test: Antiproliferative activity against human Huh-7 cells assessed as inhibition of cell growth incubated for 5 days by SRB assay; format: functional, cell-based; conditions: Huh-7, 120 h
NCI-H1299 = test: cells; conditions: Homo sapiens, NCI-H1299, 120 h
Description: Antiproliferative activity against human NCI-H1299 cells assessed as inhibition of cell growth incubated for 5 days by SRB assay

BaF3 [16] = test: Antiproliferative activity against mouse BAF3 cells expressing FGFR4 V550M mutant assessed as inhibition of cell growth incubated for 72 hrs by CCK8 assay; format: functional, cell-based; conditions: BaF3, 72 h
[17] = target: Fibroblast growth factor receptor 3 (Homo sapiens, UniProt P22607)
Description: Inhibition of FGFR3 (unknown orgin) using Tyr 04 peptide as substrate incubated for 1 hr in presence of 75 uM ATP by FRET based Z'-LYTE assay

[18] = target: Fibroblast growth factor receptor 4 (Homo sapiens, UniProt P22455); test: Inhibition of N-terminal 6His-tagged FGFR4 (unknown orgin) (445 to 753 residues) expressed in Rosetta (NEB) cells using Tyr 04 peptide as substrate incubated for 1 hr in presence of 150 uM ATP by FRET based Z'-LYTE assay
Sequence of Fibroblast growth factor receptor 4 (P22455 whole entry, the tested form may be a part): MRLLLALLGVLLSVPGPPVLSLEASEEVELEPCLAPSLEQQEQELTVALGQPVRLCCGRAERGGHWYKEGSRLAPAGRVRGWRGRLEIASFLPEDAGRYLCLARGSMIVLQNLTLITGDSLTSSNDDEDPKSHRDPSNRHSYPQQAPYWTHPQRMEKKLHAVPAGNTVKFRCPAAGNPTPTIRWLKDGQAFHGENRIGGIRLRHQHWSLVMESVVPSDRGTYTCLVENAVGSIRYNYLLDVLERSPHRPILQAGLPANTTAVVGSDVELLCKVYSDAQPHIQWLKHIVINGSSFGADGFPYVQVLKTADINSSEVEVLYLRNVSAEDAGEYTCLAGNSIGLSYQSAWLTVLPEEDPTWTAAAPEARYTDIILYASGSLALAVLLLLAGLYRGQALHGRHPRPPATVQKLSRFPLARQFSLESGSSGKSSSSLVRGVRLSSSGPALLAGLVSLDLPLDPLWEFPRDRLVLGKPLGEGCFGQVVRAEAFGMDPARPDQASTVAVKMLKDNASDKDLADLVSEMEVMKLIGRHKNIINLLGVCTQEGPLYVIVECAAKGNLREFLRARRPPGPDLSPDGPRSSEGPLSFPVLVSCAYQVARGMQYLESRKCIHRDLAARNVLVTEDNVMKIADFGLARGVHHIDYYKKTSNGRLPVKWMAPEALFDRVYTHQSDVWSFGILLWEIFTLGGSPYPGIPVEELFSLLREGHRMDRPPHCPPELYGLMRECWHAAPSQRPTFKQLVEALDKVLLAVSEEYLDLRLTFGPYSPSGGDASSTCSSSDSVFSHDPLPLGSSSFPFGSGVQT

Sequence of Fibroblast growth factor receptor 4 (Mus musculus) (Q03142 17-799 limits assumed): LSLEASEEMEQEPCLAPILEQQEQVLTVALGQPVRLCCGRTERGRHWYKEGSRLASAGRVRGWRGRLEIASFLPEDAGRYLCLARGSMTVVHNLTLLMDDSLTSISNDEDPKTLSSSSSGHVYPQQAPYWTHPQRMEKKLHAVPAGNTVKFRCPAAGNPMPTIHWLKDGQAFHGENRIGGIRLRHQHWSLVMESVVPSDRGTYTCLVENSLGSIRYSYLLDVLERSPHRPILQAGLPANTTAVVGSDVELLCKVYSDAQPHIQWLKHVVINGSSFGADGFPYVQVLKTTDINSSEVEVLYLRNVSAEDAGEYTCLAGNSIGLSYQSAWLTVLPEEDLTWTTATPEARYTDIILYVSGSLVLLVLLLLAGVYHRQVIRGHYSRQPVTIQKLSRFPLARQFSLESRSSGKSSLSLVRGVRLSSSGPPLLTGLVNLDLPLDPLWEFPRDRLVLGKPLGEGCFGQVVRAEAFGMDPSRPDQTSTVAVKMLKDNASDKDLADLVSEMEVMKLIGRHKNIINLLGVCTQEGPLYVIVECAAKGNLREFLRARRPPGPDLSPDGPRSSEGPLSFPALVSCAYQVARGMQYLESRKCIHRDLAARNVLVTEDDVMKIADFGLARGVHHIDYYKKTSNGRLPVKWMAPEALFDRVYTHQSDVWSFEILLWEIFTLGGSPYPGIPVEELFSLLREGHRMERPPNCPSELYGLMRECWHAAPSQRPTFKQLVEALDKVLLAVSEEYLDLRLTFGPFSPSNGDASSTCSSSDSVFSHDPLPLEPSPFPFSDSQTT
Sequence of Fibroblast growth factor receptor 1 (P11362 whole entry): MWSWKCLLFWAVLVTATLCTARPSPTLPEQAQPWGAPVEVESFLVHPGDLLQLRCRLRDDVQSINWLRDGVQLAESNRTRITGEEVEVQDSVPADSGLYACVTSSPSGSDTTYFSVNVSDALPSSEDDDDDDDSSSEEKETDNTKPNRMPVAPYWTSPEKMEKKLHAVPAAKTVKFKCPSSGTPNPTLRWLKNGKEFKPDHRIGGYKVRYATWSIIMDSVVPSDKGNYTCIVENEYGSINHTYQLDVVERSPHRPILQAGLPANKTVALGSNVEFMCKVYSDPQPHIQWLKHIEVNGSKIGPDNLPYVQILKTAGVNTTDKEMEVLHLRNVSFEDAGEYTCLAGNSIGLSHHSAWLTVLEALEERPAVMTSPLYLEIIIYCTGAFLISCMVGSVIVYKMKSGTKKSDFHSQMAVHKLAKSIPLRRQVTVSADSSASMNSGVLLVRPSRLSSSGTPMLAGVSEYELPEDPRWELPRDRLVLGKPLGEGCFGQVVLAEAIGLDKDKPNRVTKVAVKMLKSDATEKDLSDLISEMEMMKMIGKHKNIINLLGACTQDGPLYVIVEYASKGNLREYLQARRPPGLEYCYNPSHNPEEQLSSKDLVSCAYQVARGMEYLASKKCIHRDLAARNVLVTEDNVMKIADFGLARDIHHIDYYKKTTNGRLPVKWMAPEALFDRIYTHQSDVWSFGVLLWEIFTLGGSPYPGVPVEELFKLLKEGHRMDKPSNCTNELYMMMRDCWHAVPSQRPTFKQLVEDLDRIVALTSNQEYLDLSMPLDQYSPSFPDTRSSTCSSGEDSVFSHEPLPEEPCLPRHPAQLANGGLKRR
Sequence of Fibroblast growth factor receptor 2 (P21802 whole entry): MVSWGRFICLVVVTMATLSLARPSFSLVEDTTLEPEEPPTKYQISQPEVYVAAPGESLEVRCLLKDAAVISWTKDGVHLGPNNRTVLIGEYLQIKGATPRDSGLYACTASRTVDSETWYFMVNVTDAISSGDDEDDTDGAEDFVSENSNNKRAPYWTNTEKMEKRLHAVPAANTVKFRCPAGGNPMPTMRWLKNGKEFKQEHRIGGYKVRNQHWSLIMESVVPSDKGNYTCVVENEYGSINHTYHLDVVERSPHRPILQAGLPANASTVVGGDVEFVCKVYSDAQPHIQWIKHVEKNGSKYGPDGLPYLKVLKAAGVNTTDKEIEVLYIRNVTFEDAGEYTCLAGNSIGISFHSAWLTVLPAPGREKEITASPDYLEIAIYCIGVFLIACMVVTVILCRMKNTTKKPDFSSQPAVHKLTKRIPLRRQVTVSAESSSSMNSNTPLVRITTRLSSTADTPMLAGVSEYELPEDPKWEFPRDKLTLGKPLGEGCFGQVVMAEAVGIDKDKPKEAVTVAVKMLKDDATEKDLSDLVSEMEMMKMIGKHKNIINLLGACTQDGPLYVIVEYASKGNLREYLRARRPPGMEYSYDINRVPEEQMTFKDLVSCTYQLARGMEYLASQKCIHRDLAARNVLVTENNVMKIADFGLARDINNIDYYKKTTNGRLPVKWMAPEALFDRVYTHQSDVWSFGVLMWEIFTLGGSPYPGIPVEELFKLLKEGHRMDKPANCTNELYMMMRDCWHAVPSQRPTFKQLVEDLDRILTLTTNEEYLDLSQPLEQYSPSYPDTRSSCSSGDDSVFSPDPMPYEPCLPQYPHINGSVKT
Sequence of Fibroblast growth factor receptor 3 (P22607 whole entry, the tested form may be a part): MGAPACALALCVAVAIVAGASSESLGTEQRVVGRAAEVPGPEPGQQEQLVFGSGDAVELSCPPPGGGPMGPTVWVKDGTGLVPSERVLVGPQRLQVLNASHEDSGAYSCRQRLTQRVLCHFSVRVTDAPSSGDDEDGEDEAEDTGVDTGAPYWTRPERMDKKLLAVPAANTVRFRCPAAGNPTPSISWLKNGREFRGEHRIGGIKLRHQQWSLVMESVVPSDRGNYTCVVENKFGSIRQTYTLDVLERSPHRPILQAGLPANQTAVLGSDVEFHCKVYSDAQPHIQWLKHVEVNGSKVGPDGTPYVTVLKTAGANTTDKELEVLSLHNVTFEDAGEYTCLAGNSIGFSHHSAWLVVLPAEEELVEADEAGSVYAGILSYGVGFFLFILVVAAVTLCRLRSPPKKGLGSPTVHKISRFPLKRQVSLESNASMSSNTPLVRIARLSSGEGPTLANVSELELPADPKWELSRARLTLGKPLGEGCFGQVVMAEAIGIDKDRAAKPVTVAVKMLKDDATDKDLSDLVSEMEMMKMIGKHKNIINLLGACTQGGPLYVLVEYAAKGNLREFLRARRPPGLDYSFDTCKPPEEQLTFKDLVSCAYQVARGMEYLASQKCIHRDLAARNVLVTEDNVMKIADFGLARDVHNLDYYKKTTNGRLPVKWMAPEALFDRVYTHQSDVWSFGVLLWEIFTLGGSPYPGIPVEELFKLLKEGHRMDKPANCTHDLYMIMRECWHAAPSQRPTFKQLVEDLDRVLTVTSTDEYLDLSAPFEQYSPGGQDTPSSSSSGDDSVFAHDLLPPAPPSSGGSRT

SMILES | IC50 [1] | IC50 (Hep 3B2) | IC50 (MDA-MB-453) | IC50 (BaF3 [12]) | IC50 (NCI-H1299) | IC50 [17] | also measured
C=CC(=O)Nc1ccccc1Nc1n[nH]c2ccc(OCc3c(Cl)cncc3Cl)cc12 | > 10000 nM | – | – | – | – | – | –
C=CC(=O)Nc1cc(N2CCC(N3CCOCC3)CC2)cc(F)c1Nc1n[nH]c2ccc(O[C@H](C)c3c(Cl)cncc3Cl)cc12 | > 10000 nM | 29 nM | 34 nM | 3.5 nM | 2970 nM | > 10000 nM | inhibition (BaF3 [2]): Active; IC50 (BaF3 [3]): > 1000 nM; IC50 [4]: 54 nM; Activity [5]: Non-Toxic; inhibition in vivo at 20 mg/kg (Huh-7 [6]): 25.9%; IC50 [7]: > 10000 nM; inhibition [8]: Active; inhibition [9]: Active; IC50 (BaF3 [10]): 4.7 nM; Activity (Huh-7 [11]): Dde; inhibition in vivo at 40 mg/kg (Huh-7 [13]): 46.9%; inhibition [14]: Active; IC50 (Huh-7 [15]): 72 nM; IC50 (BaF3 [16]): 8.1 nM
C=CC(=O)Nc1cccc(F)c1Nc1n[nH]c2ccc(O[C@H](C)c3c(Cl)cncc3Cl)cc12 | > 10000 nM | 710 nM | 190 nM | 7.6 nM | 3800 nM | > 10000 nM | –
C=CC(=O)Nc1cccc(Cl)c1Nc1ncc2cc(-c3c(Cl)c(OC)cc(OC)c3Cl)ccc2n1 | 238 nM | 160 nM | 62 nM | 2.4 nM | 1070 nM | – | IC50 (BaF3 [3]): > 1000 nM; IC50 [4]: 194 nM; IC50 (BaF3 [10]): > 100 nM; IC50 (Huh-7 [15]): 48 nM; IC50 (BaF3 [16]): > 100 nM
C=CC(=O)Nc1cc(N2CCOCC2)ccc1Nc1n[nH]c2ccc(O[C@H](C)c3c(Cl)cncc3Cl)cc12 | > 10000 nM | 730 nM | 750 nM | 15 nM | 5310 nM | > 10000 nM | –
C=CC(=O)Nc1ccccc1Nc1n[nH]c2cc(-c3c(Cl)c(OC)cc(OC)c3Cl)ccc12 | 4770 nM | – | – | – | – | – | IC50 [18]: > 10000 nM
C=CC(=O)Nc1cccc(C)c1Nc1n[nH]c2ccc(O[C@H](C)c3c(Cl)cncc3Cl)cc12 | > 10000 nM | 2700 nM | 620 nM | 2 nM | 9120 nM | > 10000 nM | –
C=CC(=O)N1CCC[C@@H](Nc2n[nH]c3ccc(O[C@H](C)c4c(Cl)cncc4Cl)cc23)C1 | > 10000 nM | – | – | – | – | > 10000 nM | IC50 [18]: > 10000 nM
C=CC(=O)Nc1cc(N2CCN(C3COC3)CC2)cc(F)c1Nc1n[nH]c2ccc(O[C@H](C)c3c(Cl)cncc3Cl)cc12 | > 10000 nM | 51 nM | 14 nM | 1.9 nM | 3000 nM | > 10000 nM | IC50 [7]: > 10000 nM
C=CC(=O)Nc1ccc(OC)cc1Nc1n[nH]c2ccc(O[C@H](C)c3c(Cl)cncc3Cl)cc12 | > 10000 nM | 30200 nM | 15200 nM | 1990 nM | 12500 nM | > 10000 nM | IC50 [18]: > 10000 nM
C=CC(=O)N[C@H]1CCCC[C@H]1Nc1n[nH]c2ccc(O[C@H](C)c3c(Cl)cncc3Cl)cc12 | > 10000 nM | – | – | – | – | > 10000 nM | IC50 [18]: > 10000 nM
CCC(=O)Nc1ccccc1Nc1n[nH]c2ccc(O[C@H](C)c3c(Cl)cncc3Cl)cc12 | > 10000 nM | – | – | – | – | > 10000 nM | –
C=CC(=O)Nc1cc(N(C)CCOC)cc(F)c1Nc1n[nH]c2ccc(O[C@H](C)c3c(Cl)cncc3Cl)cc12 | > 10000 nM | 330 nM | 210 nM | 20 nM | 4760 nM | > 10000 nM | –
C=CC(=O)Nc1cccc(Cl)c1Nc1n[nH]c2ccc(O[C@H](C)c3c(Cl)cncc3Cl)cc12 | > 10000 nM | 4440 nM | 570 nM | 3 nM | 6100 nM | > 10000 nM | –
C=CC(=O)Nc1cc(N2CCC(N3CCOCC3)CC2)ccc1Nc1n[nH]c2ccc(O[C@H](C)c3c(Cl)cncc3Cl)cc12 | > 10000 nM | 220 nM | 110 nM | 0.2 nM | 3360 nM | > 10000 nM | IC50 [7]: > 10000 nM
